What all share (type): cell-based
In assay [1] the target is T1, human GIP R (Homo sapiens, UniProt P48546).
T1 construct: expressed in transfected cells
T1 sequence (P48546 22-466): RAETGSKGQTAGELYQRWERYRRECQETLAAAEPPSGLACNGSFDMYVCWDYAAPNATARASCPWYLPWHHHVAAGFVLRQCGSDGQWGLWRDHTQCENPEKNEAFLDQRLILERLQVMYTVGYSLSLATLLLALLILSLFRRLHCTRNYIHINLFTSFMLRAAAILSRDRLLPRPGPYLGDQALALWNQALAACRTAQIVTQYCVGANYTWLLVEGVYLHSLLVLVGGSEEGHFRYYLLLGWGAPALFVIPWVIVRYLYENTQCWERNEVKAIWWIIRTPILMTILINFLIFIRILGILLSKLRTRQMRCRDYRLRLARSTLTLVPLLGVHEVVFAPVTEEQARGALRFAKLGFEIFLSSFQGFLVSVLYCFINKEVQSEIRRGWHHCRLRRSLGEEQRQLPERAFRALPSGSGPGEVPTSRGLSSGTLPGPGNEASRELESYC
Put plainly: cAMP induction in HEK293 cells expressing human GIP R (AlphaScreen cAMP kit).

In assay [2] the target is T2, human GLP-1 R (Homo sapiens, UniProt P43220).
T2 construct: expressed in transfected cells
T2 sequence (P43220 24-463): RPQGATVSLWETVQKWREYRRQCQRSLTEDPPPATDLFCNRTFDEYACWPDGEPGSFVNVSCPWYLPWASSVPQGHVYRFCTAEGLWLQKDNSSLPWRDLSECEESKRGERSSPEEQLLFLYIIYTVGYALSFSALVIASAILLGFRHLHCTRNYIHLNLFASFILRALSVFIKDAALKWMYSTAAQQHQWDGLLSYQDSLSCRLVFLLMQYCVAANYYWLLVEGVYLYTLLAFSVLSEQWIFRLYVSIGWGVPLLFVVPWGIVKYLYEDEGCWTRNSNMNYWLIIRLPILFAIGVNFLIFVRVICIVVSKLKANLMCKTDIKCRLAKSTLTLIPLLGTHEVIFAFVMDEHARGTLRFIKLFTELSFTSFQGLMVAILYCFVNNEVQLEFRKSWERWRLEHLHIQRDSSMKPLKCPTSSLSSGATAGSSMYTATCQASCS
Put plainly: cAMP induction in HEK293 cells expressing human GLP-1 R (AlphaScreen cAMP kit). The note with it: average EC50, cAMP, HEK293 cells expressing human GLP-1 R, read-out: GLP1 R (EC50 in nM). A general note: Alpha assays give light when donor and acceptor beads are brought close together.
Protocol: Briefly, HEK293 cells expressing the human GIP R, GLP-1 R or GCG R (stable cell lines generated through transfection of the cDNA for human GIP R, GLP-1 R or GCG R and selection of stable clones) were seeded at 30,000 cells/well in 96-well microtiter plates coated with 0.01% poly-L-lysine, and grown for 1 day in culture in 200 μl growth medium (DMEM, 10% FCS, Penicillin (100 IU/ml), Streptomycin (100 μg/ml)). On the day of analysis, growth medium was removed and the cells were washed once with 150 μl Tyrode's buffer (Tyrode's Salts (9.6 g/l), 10 mM HEPES, pH 7.4). […] The Assay buffer was removed and cells are lysed in 80 μl Lysis buffer (0.1% w/v BSA, 5 mM HEPES, 0.3% v/v Tween-20) per well. From each well 10 μl of lysed cells were transferred to a 384-well plate and mixed with 15 μl bead-mix (1 Unit/15 μl anti-cAMP Acceptor Beads, 1 Unit/15 μl Donor Beads, and 1 Unit/15 μl Biotinylated cAMP in Assay Buffer). The plates were mixed and incubated in the dark for an hour at room temperature before measuring using an Envision™ plate reader (Perkin-Elmer).
The resulting cAMP curves were plotted as absolute cAMP concentrations (nM) over log (test compound concentration) and analyzed using the curve fitting program XLfit.
Parameters calculated to describe both the potency as well as the agonistic activity of each test compound on the receptors were:
EC50, a concentration resulting in a half-maximal elevation of cAMP levels, reflecting the potency of the test compound.

Assay [3] concerns the target T3, human GCG R (Homo sapiens, UniProt P47871).
T3 construct: expressed in transfected cells
Nature of the assay: cAMP induction in HEK293 cells expressing human GCG R (AlphaScreen cAMP kit).

The mark [4] stands for this setting: GIP R (EC50 in nM), Table 2, average EC50, cAMP.
Setting [5] is: GIP R (EC50 in nM), Table 2b (most comprehensive data), average EC50, cAMP.
Where [6] appears, read: Table 2b (most comprehensive data).

The values below come from patent publication US10131702B2, “Glucagon-GLP-1-GIP triple agonist compounds” (priority 2013, dated 2018).

Each structure is given as a SMILES string. Like-named read-outs stand apart in the source and are kept apart here. Numbered stars: 1 amine (or outer) side, 2 acyl side, 3 side chain; on linkers, the order of the positions; unused ones are H or OH. Square brackets hold non-standard residues; d marks the D form. Side chains are listed from the residue outwards. Peptide text beside a SMILES is read from it. * marks the point of attachment. γGlu = O=C(O)[C@H](CCC(=O)[*:2])N[*:1]; Stearoyl = CCCCCCCCCCCCCCCCCC(=O)*; AEEA = NCCOCCOCC(=O)O; Aib = CC(C)(N)C(=O)O

T3 sequence (P47871 26-477): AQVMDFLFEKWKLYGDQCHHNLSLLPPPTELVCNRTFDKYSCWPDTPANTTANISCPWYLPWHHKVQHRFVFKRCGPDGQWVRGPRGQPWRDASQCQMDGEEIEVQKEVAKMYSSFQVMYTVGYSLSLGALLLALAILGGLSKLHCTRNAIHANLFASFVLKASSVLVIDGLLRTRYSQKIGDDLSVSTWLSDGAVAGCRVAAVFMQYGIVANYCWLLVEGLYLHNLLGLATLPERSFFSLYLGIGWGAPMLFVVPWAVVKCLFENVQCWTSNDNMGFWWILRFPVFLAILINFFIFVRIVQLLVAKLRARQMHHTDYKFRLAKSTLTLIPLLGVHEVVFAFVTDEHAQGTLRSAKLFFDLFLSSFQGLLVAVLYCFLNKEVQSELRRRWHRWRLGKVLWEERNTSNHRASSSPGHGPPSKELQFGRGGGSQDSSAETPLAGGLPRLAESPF

As usually defined, the EC50 is the concentration giving half of the maximal effect. Consider `CC[C@H](C)[C@H](NC(=O)[C@H](CO)NC(=O)[C@H](Cc1ccc(O)cc1)NC(=O)[C@H](CC(=O)O)NC(=O)[C@H](CO)NC(=O)[C@@H](NC(=O)[C@H](Cc1ccccc1)NC(=O)[C@@H](NC(=O)CNC(=O)[C@H](CCC(N)=O)NC(=O)C(C)(C)NC(=O)[C@@H](N)Cc1ccc(O)cc1)[C@@H](C)O)[C@@H](C)O)C(=O)N[C@@H](Cc1ccc(O)cc1)C(=O)N[C@@H](CC(C)C)C(=O)N[C@@H](CC(=O)O)C(=O)N[C@@H](CO)C(=O)N[C@@H](CCCCN)C(=O)N[C@@H](C)C(=O)N[C@@H](C)C(=O)N[C@@H](CCCCN)C(=O)N[C@@H](CC(=O)O)C(=O)N[C@@H](Cc1ccccc1)C(=O)N[C@H](C(=O)N[C@@H](CCC(=O)O)C(=O)N[C@@H](Cc1c[nH]c2ccccc12)C(=O)N[C@@H](CC(C)C)C(=O)N[C@@H](CC(C)C)C(=O)N[C@@H](CO)C(=O)N[C@@H](C)C(N)=O)C(C)C` [Compound 10] (HELM PEPTIDE1{Y.[Aib].Q.G.T.F.T.S.D.Y.S.I.Y.L.D.S.K.A.A.K.D.F.V.E.W.L.L.S.A.[am]}$$$$V2.0), for which the EC50 in assay [1] (setting [4]) is 0.24 nM; in assay [1] (setting [5]) it was 0.012 nM; in assay [2] (Table 2) it was 0.012 nM; in assay [2] (setting [6]), 0.1 nM; in assay [3] it was 0.1 nM.
For `CC(C)C[C@H](NC(=O)[C@H](CC(C)C)NC(=O)[C@H](Cc1c[nH]c2ccccc12)NC(=O)[C@H](CCC(=O)O)NC(=O)[C@@H](NC(=O)[C@H](Cc1ccccc1)NC(=O)[C@H](CC(=O)O)NC(=O)[C@H](Cc1c[nH]cn1)NC(=O)[C@H](C)NC(=O)[C@H](C)NC(=O)[C@H](CCCCN)NC(=O)[C@H](CO)NC(=O)[C@H](CC(=O)O)NC(=O)[C@H](CC(C)C)NC(=O)[C@H](Cc1ccc(O)cc1)NC(=O)[C@H](CCCCN)NC(=O)[C@H](CO)NC(=O)[C@H](Cc1ccc(O)cc1)NC(=O)[C@H](CC(=O)O)NC(=O)[C@H](CO)NC(=O)[C@@H](NC(=O)[C@H](Cc1ccccc1)NC(=O)[C@@H](NC(=O)CNC(=O)[C@H](CCC(N)=O)NC(=O)[C@H](CO)NC(=O)[C@@H](N)Cc1ccc(O)cc1)[C@@H](C)O)[C@@H](C)O)C(C)C)C(=O)N[C@@H](CCCNC(=N)N)C(=O)N[C@@H](C)C(N)=O` [Compound 1] (H-YSQGTFTSDYSKYLDSKAAHDFVEWLLRA-NH2), the EC50 in assay [1] (setting [4]) is 0.38 nM; in assay [1] (setting [5]), 0.033 nM; in assay [2] (Table 2), 0.033 nM; in assay [2] (setting [6]), 0.013 nM; in assay [3], 0.013 nM.
In the case of `CCCCCCCCCCCCCCCCCC(=O)N[C@@H](CCC(=O)NCCOCCOCC(=O)NCCOCCOCC(=O)NCCCC[C@H](NC(=O)[C@H](CCCCN)NC(=O)[C@H](CC(=O)O)NC(=O)[C@H](CC(C)C)NC(=O)[C@H](Cc1ccc(O)cc1)NC(=O)[C@@H](NC(=O)[C@H](CO)NC(=O)[C@H](Cc1ccc(O)cc1)NC(=O)[C@H](CC(=O)O)NC(=O)[C@H](CO)NC(=O)[C@@H](NC(=O)[C@H](Cc1ccccc1)NC(=O)[C@@H](NC(=O)CNC(=O)[C@H](CCC(N)=O)NC(=O)C(C)(C)NC(=O)[C@@H](N)Cc1ccc(O)cc1)[C@@H](C)O)[C@@H](C)O)[C@@H](C)CC)C(=O)N[C@@H](C)C(=O)N[C@@H](CCC(N)=O)C(=O)N[C@@H](CCCNC(=N)N)C(=O)N[C@@H](C)C(=O)N[C@@H](Cc1ccccc1)C(=O)N[C@H](C(=O)N[C@@H](CCC(=O)O)C(=O)N[C@@H](Cc1c[nH]c2ccccc12)C(=O)N[C@@H](CC(C)C)C(=O)N[C@@H](CC(C)C)C(=O)N[C@@H](C)C(=O)N[C@@H](CCC(N)=O)C(=O)NCC(=O)N1CCC[C@H]1C(=O)N[C@@H](CO)C(=O)N[C@@H](CO)C(=O)NCC(=O)N[C@@H](C)C(=O)N1CCC[C@H]1C(=O)N1CCC[C@H]1C(=O)N1CCC[C@H]1C(=O)N[C@@H](CO)C(N)=O)C(C)C)C(=O)O` [Compound 35] (H-Y[Aib]QGTFTSDYSIYLDKK([AEEA-AEEA-γGlu-Stearoyl])AQRAFVEWLLAQGPSSGAPPPS-NH2), the EC50 was 0.012 nM in assay [1] (Table 2b (most comprehensive data), average EC50, cAMP, read-out: GIP R (EC50 in nM)); 1.85 nM in assay [2] (setting [6]); 0.011 nM in assay [3] (Table 2b (most comprehensive data), average EC50, cAMP, HEK293 cells expressing human GCG R, read-out: GCG R (EC50 in nM)).
